According to patent US11236084B2, “Substituted azaindoline derivatives as NIK inhibitors” (Janssen Pharmaceutica NV, priority 2017, dated 2022):
Read-outs that look alike come from different tables or passages of the source.

Target: recombinant human NF-kappaB-inducing kinase (NIK/MAP3K14) (Homo sapiens, UniProt Q99558)
Test: Biological Assay B: inhibition of auto-phosphorylation of recombinant human NIK/MAP3K14 (AlphaScreen), performed at 2 locations
Type: biochemical
Details: averaged values
Description: Inhibition of Auto-Phosphorylation of Recombinant Human NF-kappaB-Inducing Kinase (NIK/MAP3K14) Activity (AlphaScreen®)
NIK/MAP3K14 auto-phosphorylation activity was measured using the AlphaScreen® (αscreen) format (Perkin Elmer). All compounds tested were dissolved in dimethyl sulfoxide (DMSO) and further dilutions were made in assay buffer. Final DMSO concentration was 1% (v/v) in assays. Assay buffer was 50 mM Tris pH 7.5 containing 1 mM EGTA (ethylene glycol tetraacetic acid), 1 mM DTT (dithiothreitol), 0.1 mM Na3VO4, 5 mM MgCl2, 0.01% Tween® 20. Assays were carried out in 384 well Alphaplates (Perkin Elmer). Incubations consisted of compound, 25 microM Adenosine-5′-triphosphate (ATP), and 0.2 nM NIK/MAP3K14. Incubations were initiated by addition of GST-tagged NIK/MAP3K14 enzyme, carried out for 1 h at 25° C. and terminated by addition of stop buffer containing anti-phospho-IKK Ser176/180 antibody. Protein A Acceptor and Glutathione-Donor beads were added before reading using an EnVision® Multilabel Plate Reader (Perkin Elmer). Signal obtained in the wells containing blank samples was subtracted from all other wells and IC50's were determined by fitting a sigmoidal curve to % inhibition of control versus Log10 compound concentration.
Assay B was performed at 2 different locations.
Data for the compounds of the invention in the above assays are provided in Table A (the values in Table are averaged values over all measurements on all batches of a compound; values as IC50 (nM)). (‘n.c.’ means not calculated: ‘Co.’ means compound)

[1] = location 2, AlphaScreen auto-phosphorylation, read-out: Assay B location 2 IC50
[2] = location 1, AlphaScreen auto-phosphorylation, read-out: Assay B location 1 IC50

Sequence of recombinant human NF-kappaB-inducing kinase (NIK/MAP3K14) (Q99558 whole entry): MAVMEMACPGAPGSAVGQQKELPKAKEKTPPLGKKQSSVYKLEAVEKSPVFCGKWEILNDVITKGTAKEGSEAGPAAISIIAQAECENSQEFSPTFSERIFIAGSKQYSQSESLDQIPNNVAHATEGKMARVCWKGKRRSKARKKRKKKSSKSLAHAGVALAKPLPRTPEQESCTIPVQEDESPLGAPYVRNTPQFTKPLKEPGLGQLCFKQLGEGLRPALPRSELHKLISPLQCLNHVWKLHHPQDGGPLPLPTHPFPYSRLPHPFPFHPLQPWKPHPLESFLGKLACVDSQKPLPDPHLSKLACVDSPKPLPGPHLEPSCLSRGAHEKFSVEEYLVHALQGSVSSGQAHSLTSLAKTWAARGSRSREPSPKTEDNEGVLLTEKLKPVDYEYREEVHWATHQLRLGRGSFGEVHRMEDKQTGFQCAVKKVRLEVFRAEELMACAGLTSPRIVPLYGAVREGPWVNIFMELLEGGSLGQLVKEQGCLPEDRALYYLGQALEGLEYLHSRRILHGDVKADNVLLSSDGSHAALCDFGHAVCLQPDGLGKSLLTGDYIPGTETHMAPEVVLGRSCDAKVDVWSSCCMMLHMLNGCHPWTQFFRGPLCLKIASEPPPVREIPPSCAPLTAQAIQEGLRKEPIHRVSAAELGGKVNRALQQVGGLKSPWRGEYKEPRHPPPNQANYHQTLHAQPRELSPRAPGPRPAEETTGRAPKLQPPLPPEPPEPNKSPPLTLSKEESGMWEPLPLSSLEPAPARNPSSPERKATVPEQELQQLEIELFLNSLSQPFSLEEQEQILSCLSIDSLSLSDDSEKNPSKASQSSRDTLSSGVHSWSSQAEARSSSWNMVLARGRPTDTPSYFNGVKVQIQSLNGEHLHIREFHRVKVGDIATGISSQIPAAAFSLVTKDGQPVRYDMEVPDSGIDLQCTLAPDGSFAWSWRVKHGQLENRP

Structure (SMILES)	IC50 [1] [nM]	IC50 [2] [nM]	IC50 (location 2, NIK auto-phosphorylation, AlphaScreen, read-out: Assay B location 2 IC50) [nM]
CCN1CCN(c2cc(OC)c(Nc3nccc(-c4cnc5c(c4)C(C)(CO)CN5)n3)cc2C#N)CC1 (stereo not shown) [Compound 279]	2.7		
COc1cc(-c2ncc[nH]2)ccc1Nc1nccc(-c2cnc3c(c2)C(C)(CO)CN3)n1 (stereo not shown) [Compound 163]	12		
CCN1CCN(c2cc(OC)c(Nc3nccc(-c4cnc5c(c4)C(C)(CO)CN5)n3)cc2C)CC1 (stereo not shown) [Compound 318]	1.5	4.9	
COc1ccc(CO)cc1Nc1nccc(-c2cnc3c(c2)C(C)(CO)CN3)n1 (stereo not shown) [Compound 204]	10.7		
COc1cc(N2CCC(C)(O)CC2)c(Cl)cc1Nc1nccc(-c2cnc3c(c2)C(C)(CO)CN3)n1 (stereo not shown) [Compound 333]	2.2		
COc1cccc(Nc2nccc(-c3cnc4c(c3)C(C)(CO)CN4)n2)c1C (stereo not shown) [Compound 214]	12		
COc1ccc(C(F)(F)F)cc1Nc1nccc(-c2cnc3c(c2)C(C)(CO)CN3)n1 (stereo not shown) [Compound 173]	10		
COc1cc(N2CCC(N(C)C)CC2)c(Cl)cc1Nc1nccc(-c2cnc3c(c2)C(C)(C)CN3)n1 [Compound 330]	0.7	3.6	
CC1(CO)CNc2ncc(-c3ccnc(Nc4cc(Cl)c(N5CCOCC5)cc4Cl)n3)cc21 (single isomer, unassigned) [Compound 266]	1.9	5	
Cc1cc(N2CCOCC2)c(F)cc1Nc1nccc(-c2cnc3c(c2)C(C)(CO)CN3)n1 (single isomer, unassigned) [Compound 255]	7.2	10.2	
COc1cc(Nc2nccc(-c3cnc4c(c3)C(C)(CO)CN4)n2)ccc1-c1cnn(C)c1 (stereo not shown) [Compound 188]	5.5		
COc1cccc(Nc2nccc(-c3cnc4c(c3)C(C)(CO)CN4)n2)c1 (stereo not shown) [Compound 168]	3.6		
CCN1CCN(C(=O)c2cc(OC)c(Nc3nccc(-c4cnc5c(c4)C(C)(CO)CN5)n3)cc2Cl)CC1 (stereo not shown) [Compound 328]	1.5		
CC1(CO)CNc2ncc(-c3ccnc(Nc4cc(Cl)c(N5CCOCC5)cc4Cl)n3)cc21 (stereo not shown) [Compound 362]	3.6	6.9	
CN(C)CCOc1cc(N2CCOCC2)c(Cl)cc1Nc1nccc(-c2cnc3c(c2)C(C)(CO)CN3)n1 (single isomer, unassigned) [Compound 274]	1450	2690	
COc1cc(C(=O)NC(C)(C)CO)ccc1Nc1nccc(-c2cnc3c(c2)C(C)(CO)CN3)n1 (stereo not shown) [Compound 160]	18.6		
COc1cccc(F)c1Nc1nccc(-c2cnc3c(c2)C(C)(CO)CN3)n1 (stereo not shown) [Compound 250]	1230	912	
CC1(CO)CNc2ncc(-c3ccnc(Nc4cc(Cl)c(N5CCOCC5)cc4Cl)n3)cc21 (single isomer, unassigned) [Compound 265]	35.5	47.9	
CCC1(CC#N)CNc2ncc(-c3ccnc(Nc4ccc(C(=O)N5CCC(OC)CC5)cc4OC)n3)cc21 (stereo not shown) [Compound 155]	38		
CC1(CO)CNc2ncc(-c3ccnc(Nc4ccccc4F)n3)cc21 (stereo not shown) [Compound 177]	32.4		

Structure (SMILES)	IC50 [1] [nM]	IC50 [2] [nM]	IC50 (location 2, NIK auto-phosphorylation, AlphaScreen, read-out: Assay B location 2 IC50) [nM]
COc1ccc(C#N)cc1Nc1nccc(-c2cnc3c(c2)C(C)(CO)CN3)n1 (single isomer, unassigned) [Compound 248]	1.3		
CCN1CCN(c2cc(OC)c(Nc3nccc(-c4cnc5c(c4)C(C)(C)CN5)n3)cc2Cl)CC1 [Compound 329]	1.7	3.8	
COc1cc(OC2CCN(C)CC2)ccc1Nc1nccc(-c2cnc3c(c2)C(C)(CO)CN3)n1 (stereo not shown) [Compound 228]	26.3		
COc1ccc(F)cc1Nc1nccc(-c2cnc3c(c2)C(C)(CO)CN3)n1 (stereo not shown) [Compound 182]	3		
CC(=O)Nc1ccc(C)c(Nc2nccc(-c3cnc4c(c3)C(C)(CO)CN4)n2)c1 (stereo not shown) [Compound 211]	49		
COc1cc(N2CC(OC)C2)c(Cl)cc1Nc1nccc(-c2cnc3c(c2)C(C)(CO)CN3)n1 (stereo not shown) [Compound 287]	1.3	3.9	
Cc1cc(N2CCOCC2)c(C#N)cc1Nc1nccc(-c2cnc3c(c2)C(C)(CO)CN3)n1 (single isomer, unassigned) [Compound 264]	6	6.6	
CC1(CO)CNc2ncc(-c3ccnc(Nc4cc(C#N)c(N5CCOCC5)cc4Cl)n3)cc21 (single isomer, unassigned) [Compound 260]	70.8	117	
COc1cc(Cl)ccc1Nc1nccc(-c2cnc3c(c2)C(C)(CO)CN3)n1 (stereo not shown) [Compound 172]	71.6	75.9	
COc1cc(N2CC(N(C)C)C2)c(Cl)cc1Nc1nccc(-c2cnc3c(c2)C(C)(CO)CN3)n1 (stereo not shown) [Compound 289]	1.2	3.6	
COc1ccc(Nc2nccc(-c3cnc4c(c3)C(C)(CO)CN4)n2)c(OC)c1 (stereo not shown) [Compound 164]	5.6		
COc1cc(CO)c(Cl)cc1Nc1nccc(-c2cnc3c(c2)C(C)(C)CN3)n1 [Compound 339]			5.6
COc1cc(N2CCC(F)(F)CC2)ccc1Nc1nccc(-c2cnc3c(c2)C(C)(CO)CN3)n1 (stereo not shown) [Compound 217]	27.5		
CC1(CO)CNc2ncc(-c3ccnc(Nc4cc(Cl)ccc4Cl)n3)cc21 (stereo not shown) [Compound 196]	4		
COc1cc(N2CCOCC2)c(F)cc1Nc1nccc(-c2cnc3c(c2)C(C)(CO)CN3)n1 (single isomer, unassigned) [Compound 253]	42.7	102	
COc1cc(N2CC3(CCOCC3)C2)c(F)cc1Nc1nccc(-c2cnc3c(c2)C(C)(CO)CN3)n1 (stereo not shown) [Compound 7]	2.6	15.5	
Cc1ccc(C#N)cc1Nc1nccc(-c2cnc3c(c2)C(C)(CO)CN3)n1 (stereo not shown) [Compound 208]	5		
Cc1c(C#N)cccc1Nc1nccc(-c2cnc3c(c2)C(C)(CO)CN3)n1 (stereo not shown) [Compound 223]	63.1		
COc1cc(N2CC3(CCOCC3)C2)c(F)cc1Nc1nccc(-c2cnc3c(c2)C(C)(CO)CN3)n1 (single isomer, unassigned) [Compound 7R]	19.1	70.8	
COc1cc(-c2cnn(C)c2)ccc1Nc1nccc(-c2cnc3c(c2)C(C)(CO)CN3)n1 (stereo not shown) [Compound 169]	8.9		

Structure (SMILES)	IC50 [1] [nM]	IC50 [2] [nM]	IC50 (location 2, NIK auto-phosphorylation, AlphaScreen, read-out: Assay B location 2 IC50) [nM]
Cc1c(Cl)cccc1Nc1nccc(-c2cnc3c(c2)C(C)(CO)CN3)n1 (stereo not shown) [Compound 224]	38		
CC1(CO)CNc2ncc(-c3ccnc(Nc4cc(C#N)c(N5CCOCC5)cc4Cl)n3)cc21 (single isomer, unassigned) [Compound 259]	3.8	3.6	
COc1cc(N2CCC2)c(Cl)cc1Nc1nccc(-c2cnc3c(c2)C(C)(CO)CN3)n1 (stereo not shown) [Compound 294]	2.3	12	
COc1cc(Cn2cccn2)ccc1Nc1nccc(-c2cnc3c(c2)C(C)(CO)CN3)n1 (stereo not shown) [Compound 189]	6.9		
COc1ccc(C)cc1Nc1nccc(-c2cnc3c(c2)C(C)(CO)CN3)n1 (stereo not shown) [Compound 184]	3.4		
COc1cc(C(=O)N2CCC(OC)CC2)c(Cl)cc1Nc1nccc(-c2cnc3c(c2)C(C)(C)CN3)n1 [Compound 9]	1.8	5.3	
COc1cc(N2CC(C)(C)C2)c(Cl)cc1Nc1nccc(-c2cnc3c(c2)C(C)(CO)CN3)n1 (stereo not shown) [Compound 304]	5.9	18.2	
COc1cc(N2CCN(C)CC2)c(Cl)cc1Nc1nccc(-c2cnc3c(c2)C(C)(CO)CN3)n1 (single isomer, unassigned) [Compound 291]	0.5	1.4	
COc1cc(C(=O)N2CCC(OC)C2)c(Cl)cc1Nc1nccc(-c2cnc3c(c2)C(C)(C)CN3)n1 (stereo not shown) [Compound 292]	1.6	4.3	
COc1cc(N2CC3(CCOCC3)C2)ccc1Nc1nccc(-c2cnc3c(c2)C(C)(CO)CN3)n1 (stereo not shown) [Compound 242]	13.8	35.5	
COc1cc(N2CC(C)(O)C2)c(Cl)cc1Nc1nccc(-c2cnc3c(c2)C(C)(CO)CN3)n1 (stereo not shown) [Compound 313]	4.9	6.9	
CCc1ccc(OC)c(Nc2nccc(-c3cnc4c(c3)C(C)(CO)CN4)n2)c1 (stereo not shown) [Compound 206]	38		
COc1cc(N2CC(OC)C2)c(F)cc1Nc1nccc(-c2cnc3c(c2)C(C)(CO)CN3)n1 (stereo not shown) [Compound 270]	5.8	21.4	
COCC(C)(C)CNc1cc(OC)c(Nc2nccc(-c3cnc4c(c3)C(C)(CO)CN4)n2)cc1F (stereo not shown) [Compound 323]	7.2	22.9	
Cc1cc(N2CCOCC2)c(F)cc1Nc1nccc(-c2cnc3c(c2)C(C)(CO)CN3)n1 (stereo not shown) [Compound 366]	12.9	22.9	
CCc1ccccc1Nc1nccc(-c2cnc3c(c2)C(C)(CO)CN3)n1 (stereo not shown) [Compound 167]	19.1		
COc1ccc(C2CC2)cc1Nc1nccc(-c2cnc3c(c2)C(C)(CO)CN3)n1 (stereo not shown) [Compound 195]	49		
COc1cc(N2CCOCC2)c(Cl)cc1Nc1nccc(-c2cnc3c(c2)C(C)(CO)CN3)n1 (stereo not shown) [Compound 6]	4	4.7	
COc1cc(N2CCC(C#N)CC2)ccc1Nc1nccc(-c2cnc3c(c2)C(C)(CO)CN3)n1 (stereo not shown) [Compound 215]	12.9		
